Test results: article PMC4774911, “Biochemical Screening of Five Protein Kinases from Plasmodium falciparum against 14,000 Cell-Active Compounds” (PLoS ONE, 2016)
Where “and” joins values, the source holds several entries; their conditions need not be identical. Equal values may be shown once.

Assays:
Assay in all cases: biochemical
Design in all cases: endogenous in cells; host or cells: K562 cell extract; species or system K562 (extract); replicate k of n = 2 (each experiment ID is one independent experiment; two experiment IDs per compound)
Conditions in all cases: read-out: KDapp
BRAF = BRAF (Homo sapiens, UniProt P15056)
MAP3K3 = target: T1, MAP3K3 (Homo sapiens, UniProt Q99759)
T1 sequence (Q99759 1-626): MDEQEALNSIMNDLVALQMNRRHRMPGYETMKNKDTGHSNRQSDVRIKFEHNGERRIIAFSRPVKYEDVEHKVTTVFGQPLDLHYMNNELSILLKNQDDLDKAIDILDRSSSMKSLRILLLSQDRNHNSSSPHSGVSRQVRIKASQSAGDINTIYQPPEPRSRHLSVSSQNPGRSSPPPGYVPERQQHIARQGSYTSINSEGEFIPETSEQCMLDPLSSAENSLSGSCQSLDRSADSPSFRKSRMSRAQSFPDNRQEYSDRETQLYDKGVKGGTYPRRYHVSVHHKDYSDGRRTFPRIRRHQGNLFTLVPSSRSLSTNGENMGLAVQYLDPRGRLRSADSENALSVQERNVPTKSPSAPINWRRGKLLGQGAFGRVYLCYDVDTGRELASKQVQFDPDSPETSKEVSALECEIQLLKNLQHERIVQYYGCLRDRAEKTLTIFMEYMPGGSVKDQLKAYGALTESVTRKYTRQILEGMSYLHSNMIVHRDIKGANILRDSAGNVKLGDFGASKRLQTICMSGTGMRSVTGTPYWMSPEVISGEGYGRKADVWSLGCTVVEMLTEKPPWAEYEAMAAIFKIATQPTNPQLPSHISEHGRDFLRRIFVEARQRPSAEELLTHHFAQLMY

CDK9 = CDK9 (Homo sapiens, UniProt P50750)
JAK1 = JAK1 (Homo sapiens, UniProt P23458)
PRKCB = PRKCB (Homo sapiens, UniProt P05771)
MELK = MELK (Homo sapiens, UniProt Q14680)
SIK2 = SIK2 (Homo sapiens, UniProt Q9H0K1)
EIF2AK4 = EIF2AK4 (Homo sapiens, UniProt Q9P2K8)

MELK, sequence (Q14680 whole entry): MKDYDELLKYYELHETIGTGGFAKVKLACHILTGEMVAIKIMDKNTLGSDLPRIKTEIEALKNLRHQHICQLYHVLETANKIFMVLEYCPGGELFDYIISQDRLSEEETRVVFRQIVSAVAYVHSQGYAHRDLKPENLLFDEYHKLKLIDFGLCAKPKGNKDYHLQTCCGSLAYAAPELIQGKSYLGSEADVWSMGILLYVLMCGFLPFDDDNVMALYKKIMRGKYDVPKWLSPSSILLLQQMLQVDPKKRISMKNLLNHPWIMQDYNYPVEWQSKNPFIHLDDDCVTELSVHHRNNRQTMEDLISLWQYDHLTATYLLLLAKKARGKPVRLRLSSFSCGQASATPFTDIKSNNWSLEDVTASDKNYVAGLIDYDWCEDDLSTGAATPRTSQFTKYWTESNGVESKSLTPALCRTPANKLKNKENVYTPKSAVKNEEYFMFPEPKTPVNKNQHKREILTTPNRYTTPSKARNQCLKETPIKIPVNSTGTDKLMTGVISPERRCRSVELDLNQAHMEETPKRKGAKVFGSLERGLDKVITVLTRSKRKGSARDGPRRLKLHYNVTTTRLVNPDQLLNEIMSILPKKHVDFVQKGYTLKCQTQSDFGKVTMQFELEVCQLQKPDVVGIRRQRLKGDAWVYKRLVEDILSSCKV
SIK2, sequence (Q9H0K1 whole entry): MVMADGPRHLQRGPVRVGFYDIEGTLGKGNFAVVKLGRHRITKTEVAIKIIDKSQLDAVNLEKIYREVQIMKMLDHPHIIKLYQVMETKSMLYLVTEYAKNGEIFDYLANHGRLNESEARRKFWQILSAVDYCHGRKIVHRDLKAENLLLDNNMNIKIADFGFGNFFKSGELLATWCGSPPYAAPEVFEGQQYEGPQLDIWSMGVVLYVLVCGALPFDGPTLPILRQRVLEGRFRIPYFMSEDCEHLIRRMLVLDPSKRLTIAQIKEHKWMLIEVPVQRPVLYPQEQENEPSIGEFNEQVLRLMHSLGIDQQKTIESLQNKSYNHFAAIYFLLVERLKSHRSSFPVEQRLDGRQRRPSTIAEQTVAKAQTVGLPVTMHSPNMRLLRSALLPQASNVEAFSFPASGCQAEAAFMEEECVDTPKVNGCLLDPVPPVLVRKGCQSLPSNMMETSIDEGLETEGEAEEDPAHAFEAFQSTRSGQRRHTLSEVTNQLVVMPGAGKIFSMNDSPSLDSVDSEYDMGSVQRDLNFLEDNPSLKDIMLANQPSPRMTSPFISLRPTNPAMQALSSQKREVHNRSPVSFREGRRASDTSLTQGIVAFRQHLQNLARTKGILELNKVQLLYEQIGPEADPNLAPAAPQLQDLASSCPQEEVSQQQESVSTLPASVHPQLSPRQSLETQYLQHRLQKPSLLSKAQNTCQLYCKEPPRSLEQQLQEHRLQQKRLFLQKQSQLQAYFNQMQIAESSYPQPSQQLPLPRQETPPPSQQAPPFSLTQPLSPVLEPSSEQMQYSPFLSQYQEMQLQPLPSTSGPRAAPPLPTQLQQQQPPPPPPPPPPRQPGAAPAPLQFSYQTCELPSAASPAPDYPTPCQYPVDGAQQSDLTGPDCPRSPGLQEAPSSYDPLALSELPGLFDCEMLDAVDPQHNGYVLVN
JAK1, sequence (P23458 whole entry): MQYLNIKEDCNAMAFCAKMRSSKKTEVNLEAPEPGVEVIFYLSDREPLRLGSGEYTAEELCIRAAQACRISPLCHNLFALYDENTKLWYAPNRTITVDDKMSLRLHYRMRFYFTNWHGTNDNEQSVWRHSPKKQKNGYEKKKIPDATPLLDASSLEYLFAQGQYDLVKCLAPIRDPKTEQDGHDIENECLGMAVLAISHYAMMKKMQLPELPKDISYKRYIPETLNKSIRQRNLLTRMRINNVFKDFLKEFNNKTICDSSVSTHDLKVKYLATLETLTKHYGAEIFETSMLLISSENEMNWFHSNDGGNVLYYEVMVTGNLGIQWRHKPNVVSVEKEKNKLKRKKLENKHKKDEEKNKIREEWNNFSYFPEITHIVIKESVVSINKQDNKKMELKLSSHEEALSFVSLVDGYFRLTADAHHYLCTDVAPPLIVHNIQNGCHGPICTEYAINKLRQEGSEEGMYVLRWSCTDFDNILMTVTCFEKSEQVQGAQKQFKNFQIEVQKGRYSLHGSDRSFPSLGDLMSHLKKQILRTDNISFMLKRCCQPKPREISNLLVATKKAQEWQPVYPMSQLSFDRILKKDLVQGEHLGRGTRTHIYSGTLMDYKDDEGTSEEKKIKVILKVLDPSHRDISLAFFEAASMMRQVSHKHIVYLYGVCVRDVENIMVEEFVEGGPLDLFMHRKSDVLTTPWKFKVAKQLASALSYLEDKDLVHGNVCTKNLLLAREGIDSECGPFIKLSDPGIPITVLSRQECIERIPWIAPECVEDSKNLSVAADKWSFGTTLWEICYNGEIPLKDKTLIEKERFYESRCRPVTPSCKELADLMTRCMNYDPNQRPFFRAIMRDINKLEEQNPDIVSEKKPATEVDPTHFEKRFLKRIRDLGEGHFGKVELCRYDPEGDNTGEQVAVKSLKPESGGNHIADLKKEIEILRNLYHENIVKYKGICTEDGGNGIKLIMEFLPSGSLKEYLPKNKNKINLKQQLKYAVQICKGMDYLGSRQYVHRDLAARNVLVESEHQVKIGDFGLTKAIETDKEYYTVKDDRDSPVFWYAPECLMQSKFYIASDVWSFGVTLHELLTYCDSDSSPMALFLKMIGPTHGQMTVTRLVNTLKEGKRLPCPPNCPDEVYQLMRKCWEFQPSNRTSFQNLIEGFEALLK
BRAF, sequence (P15056 whole entry): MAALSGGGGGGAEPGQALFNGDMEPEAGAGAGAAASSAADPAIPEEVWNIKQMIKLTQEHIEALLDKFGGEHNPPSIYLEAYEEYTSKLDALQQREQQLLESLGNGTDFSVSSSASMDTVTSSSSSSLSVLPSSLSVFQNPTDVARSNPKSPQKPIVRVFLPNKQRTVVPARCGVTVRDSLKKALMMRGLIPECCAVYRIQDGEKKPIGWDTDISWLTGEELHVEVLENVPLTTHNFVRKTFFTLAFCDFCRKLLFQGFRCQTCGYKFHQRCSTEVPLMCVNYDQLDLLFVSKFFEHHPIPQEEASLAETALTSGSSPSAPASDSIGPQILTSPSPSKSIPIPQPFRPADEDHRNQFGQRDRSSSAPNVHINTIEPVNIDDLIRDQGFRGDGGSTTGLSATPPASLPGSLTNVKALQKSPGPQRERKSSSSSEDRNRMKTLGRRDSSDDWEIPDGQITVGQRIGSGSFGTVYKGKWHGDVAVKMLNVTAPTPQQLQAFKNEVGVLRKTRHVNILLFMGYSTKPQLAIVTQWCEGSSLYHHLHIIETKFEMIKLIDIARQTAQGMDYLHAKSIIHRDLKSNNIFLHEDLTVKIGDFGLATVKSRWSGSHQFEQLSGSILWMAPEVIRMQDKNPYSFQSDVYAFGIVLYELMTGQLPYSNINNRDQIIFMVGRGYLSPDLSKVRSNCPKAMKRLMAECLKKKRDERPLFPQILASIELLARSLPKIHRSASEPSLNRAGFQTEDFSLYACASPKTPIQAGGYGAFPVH
PRKCB, sequence (P05771 whole entry): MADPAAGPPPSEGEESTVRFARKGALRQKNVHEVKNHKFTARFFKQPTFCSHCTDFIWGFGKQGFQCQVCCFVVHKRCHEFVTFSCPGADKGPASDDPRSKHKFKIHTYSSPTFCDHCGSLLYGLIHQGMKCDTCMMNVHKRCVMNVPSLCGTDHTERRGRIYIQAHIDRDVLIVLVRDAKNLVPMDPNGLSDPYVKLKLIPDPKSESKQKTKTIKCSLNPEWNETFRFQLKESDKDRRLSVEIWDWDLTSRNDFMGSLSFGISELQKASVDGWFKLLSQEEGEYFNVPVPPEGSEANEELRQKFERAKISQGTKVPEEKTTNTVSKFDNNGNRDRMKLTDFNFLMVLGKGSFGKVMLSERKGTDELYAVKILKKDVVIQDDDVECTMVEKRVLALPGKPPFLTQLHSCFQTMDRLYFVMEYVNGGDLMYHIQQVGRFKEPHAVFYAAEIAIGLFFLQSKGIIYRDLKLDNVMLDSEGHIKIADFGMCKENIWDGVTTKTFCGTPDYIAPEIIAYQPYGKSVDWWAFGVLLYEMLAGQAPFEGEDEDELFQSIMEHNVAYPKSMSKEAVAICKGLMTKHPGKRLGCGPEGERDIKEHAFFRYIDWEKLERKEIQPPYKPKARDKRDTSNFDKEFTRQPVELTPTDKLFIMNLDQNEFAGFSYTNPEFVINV
CDK9, sequence (P50750 whole entry): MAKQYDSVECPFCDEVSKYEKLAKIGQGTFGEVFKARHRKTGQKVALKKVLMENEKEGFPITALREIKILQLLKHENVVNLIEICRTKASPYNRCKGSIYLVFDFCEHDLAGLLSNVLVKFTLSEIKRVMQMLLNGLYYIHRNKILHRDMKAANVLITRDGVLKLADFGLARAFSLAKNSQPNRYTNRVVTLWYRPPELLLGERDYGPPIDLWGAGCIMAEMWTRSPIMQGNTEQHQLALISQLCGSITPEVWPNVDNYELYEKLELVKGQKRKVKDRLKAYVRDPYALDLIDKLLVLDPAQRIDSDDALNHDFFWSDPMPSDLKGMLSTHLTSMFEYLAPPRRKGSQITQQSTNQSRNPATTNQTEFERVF

| SMILES | Kd (BRAF) | Kd (MAP3K3) | Kd (CDK9) | Kd (JAK1) | Kd (PRKCB) | Kd (MELK) | Kd (SIK2) | Kd (EIF2AK4) |
| --- | --- | --- | --- | --- | --- | --- | --- | --- |
| CN1CCN(c2ccc(Nc3ncc(C#N)c(Nc4ccccc4C(N)=O)n3)cc2)CC1.Cl [TCMDC-134116] | 1570 nM | 176 nM | 576 nM and 393 nM | 13.1 nM and 19.5 nM | 410 nM | 129 nM and 125 nM | 10.6 nM | 168 nM and 147 nM |
| Cl.NCC1(c2nc(-c3ccc(Cl)c(O)c3)c(-c3ccncc3)[nH]2)CCCCC1 [TCMDC-141154] | 861 nM and 705 nM |  |  |  | 5660 nM and 2780 nM | 1680 nM and 1610 nM | 173 nM and 161 nM |  |
| CN(C)CC(O)COc1ccc(Nc2ncc([N+](=O)[O-])c(Nc3ccccc3O)n2)cc1.O=C(O)C(F)(F)F (stereo not shown) [TCMDC-141399] |  | 3400 nM | 2780 nM and 3820 nM | 272 nM and 346 nM |  |  |  | 182 nM and 245 nM |
